Source: patent publication US10385024B2, “Compounds and methods for inhibiting NHE-mediated antiport in the treatment of disorders associated with fluid retention or salt overload and gastrointestinal tract disorders” (Ardelyx, Inc., priority 2012, dated 2019)

Assays:
[1] = molecular target: T1, human NHE-3 (Homo sapiens, UniProt P48764); test: Cell-based assay of NHE-3 activity (human NHE3 inhibition assay); conditions: OK cells with human NHE-3 gene, BCECF pH dye, 0-30 μM test compound; for IC50: read-out: Human NHE3 pIC50 (converted)
T1 construct: expressed in transfected cells; host or cells: Opossum kidney (OK) cells (ATCC), transfected by electroporation
T1 sequence (P48764 26-834): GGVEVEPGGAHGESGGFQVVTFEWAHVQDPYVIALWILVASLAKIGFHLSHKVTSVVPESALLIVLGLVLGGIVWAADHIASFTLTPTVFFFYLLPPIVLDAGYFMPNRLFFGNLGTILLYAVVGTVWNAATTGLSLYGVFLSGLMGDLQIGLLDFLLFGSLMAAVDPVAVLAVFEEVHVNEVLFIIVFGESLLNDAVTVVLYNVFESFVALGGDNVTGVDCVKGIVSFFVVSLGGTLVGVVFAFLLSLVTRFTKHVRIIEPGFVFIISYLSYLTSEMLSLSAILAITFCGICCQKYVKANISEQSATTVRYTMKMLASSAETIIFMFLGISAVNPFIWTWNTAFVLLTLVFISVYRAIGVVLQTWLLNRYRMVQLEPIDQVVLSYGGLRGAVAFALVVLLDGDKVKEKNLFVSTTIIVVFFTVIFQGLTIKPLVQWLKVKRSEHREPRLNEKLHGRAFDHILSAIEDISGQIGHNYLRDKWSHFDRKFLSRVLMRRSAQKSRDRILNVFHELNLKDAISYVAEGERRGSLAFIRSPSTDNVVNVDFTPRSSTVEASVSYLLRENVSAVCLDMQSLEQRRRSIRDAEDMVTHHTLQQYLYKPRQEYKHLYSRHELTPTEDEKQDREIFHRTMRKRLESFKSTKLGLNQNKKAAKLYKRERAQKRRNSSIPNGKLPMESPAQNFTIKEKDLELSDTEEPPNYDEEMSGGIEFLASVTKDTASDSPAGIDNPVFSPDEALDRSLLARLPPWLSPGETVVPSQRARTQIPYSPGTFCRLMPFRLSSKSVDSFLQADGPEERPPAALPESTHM
Procedure: (§1) Rat or human NHE-3-mediated Na^+-dependent H^+ antiport was measured using a modification of the pH sensitive dye method originally reported by Paradiso (Proc. Natl. Acad. Sci. USA. (1984) 81(23): 7436-7440). Opossum kidney (OK) cells were obtained from the ATCC and propagated per their instructions. The rat NHE-3 gene (GenBank M85300) or the human NHE-3 gene (GenBank NM_004174.1) was introduced into OK cells via electroporation, and cells were seeded into 96 well plates and grown overnight. Medium was aspirated from the wells, cells were washed twice with NaCl-HEPES buffer (100 mM NaCl, 50 mM HEPES, 10 mM glucose, 5 mM KCl, 2 mM CaCl2, 1 mM MgCl2, pH 7.4), then incubated for 30 min at room temperature with NH4Cl-HEPES buffer (20 mM NH4Cl, 80 mM NaCl, 50 mM HEPES, 5 mM KCl, 2 mM CaCl2, 1 mM MgCl2, pH 7.4) containing 5 μM bis(acetoxymethyl) 3,3′-(3′,6′-bis(acetoxymethoxy)-5-((acetoxymethoxy)carbonyl)-3-oxo-3H-spiro[isobenzofuran-1,9′-xanthene]-2′,7′-diyl)dipropanoate (BCECF-AM). Cells were washed twice with Ammonium free, Na^+-free HEPES (100 mM choline, 50 mM HEPES, 10 mM glucose, 5 mM KCl, 2 mM CaCl2, 1 mM MgCl2, pH 7.4) and incubated in the same buffer for 10 minutes at room temperature to lower intracellular pH. […] Initial rates were plotted as the average 2 or more replicates, and pIC50 values were estimated using GraphPad Prism.

[2] = molecular target: T2, Rat NHE-3 (Rattus norvegicus, UniProt P26433); test: Cell-based assay of NHE-3 activity (rat NHE-3 prompt inhibition); conditions: OK cells with rat NHE-3 gene, compound present during pH recovery; for IC50: read-out: Rat NHE3 pIC50 (prompt) (converted)
T2 construct: expressed in transfected cells; host or cells: Opossum kidney (OK) cells (ATCC), transfected by electroporation
T2 sequence (P26433 29-831): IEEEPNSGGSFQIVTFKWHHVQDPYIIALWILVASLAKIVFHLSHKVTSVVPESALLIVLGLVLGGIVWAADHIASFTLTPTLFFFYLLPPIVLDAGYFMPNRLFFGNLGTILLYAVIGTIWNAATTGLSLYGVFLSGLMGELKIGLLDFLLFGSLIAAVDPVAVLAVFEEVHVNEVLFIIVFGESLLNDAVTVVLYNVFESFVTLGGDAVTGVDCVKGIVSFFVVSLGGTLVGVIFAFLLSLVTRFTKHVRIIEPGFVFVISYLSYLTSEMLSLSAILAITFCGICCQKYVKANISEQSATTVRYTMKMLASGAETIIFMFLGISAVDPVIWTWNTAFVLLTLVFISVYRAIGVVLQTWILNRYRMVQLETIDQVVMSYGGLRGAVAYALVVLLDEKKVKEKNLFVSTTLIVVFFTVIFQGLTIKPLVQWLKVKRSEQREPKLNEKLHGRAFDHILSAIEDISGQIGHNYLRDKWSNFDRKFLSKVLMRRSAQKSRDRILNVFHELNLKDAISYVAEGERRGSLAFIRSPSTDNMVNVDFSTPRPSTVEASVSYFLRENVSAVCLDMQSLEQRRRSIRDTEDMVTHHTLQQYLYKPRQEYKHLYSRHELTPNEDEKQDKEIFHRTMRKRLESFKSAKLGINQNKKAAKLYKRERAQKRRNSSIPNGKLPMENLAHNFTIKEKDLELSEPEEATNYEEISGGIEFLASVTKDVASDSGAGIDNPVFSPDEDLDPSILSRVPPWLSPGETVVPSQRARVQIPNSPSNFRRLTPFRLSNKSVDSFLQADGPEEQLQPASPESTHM
Procedure: as §1

[3] = molecular target: T2, Rat NHE-3; test: Cell-based assay of NHE-3 activity (persistent inhibition, after washout); conditions: OK cells with rat NHE-3 gene, 60 min incubation, recovery initiated 40 min after compound washout; for IC50: read-out: Rat NHE3 pIC50 (persistent) (converted)
Procedure: The ability of compounds to inhibit Rat NHE-3-mediated Na^+-dependent H^+ antiport after application and washout was measured using a modification of the pH sensitive dye method described above in Example 74. Opossum kidney (OK) cells were obtained from the ATCC and propagated per their instructions. The rat NHE-3 gene was introduced into OK cells via electroporation, and cells were seeded into 96 well plates and grown overnight. Medium was aspirated from the wells, cells were washed twice with NaCl-HEPES buffer (100 mM NaCl, 50 mM HEPES, 10 mM glucose, 5 mM KCl, 2 mM CaCl2, 1 mM MgCl2, pH 7.4), then overlayed with NaCl-HEPES buffer containing 0-30 μM test compound. After a 60 min incubation, the test drug containing buffer was aspirated from the cells, cells were washed twice with NaCl-HEPES buffer without drug, then incubated for 30 min at room temperature with NH4Cl-HEPES buffer (20 mM NH4Cl, 80 mM NaCl, 50 mM HEPES, 5 mM KCl, 2 mM CaCl2, 1 mM MgCl2, pH 7.4) containing 5 μM BCECF-AM. Cells were washed twice with ammonium free, Na^+-free HEPES (100 mM choline, 50 mM HEPES, 10 mM glucose, 5 mM KCl, 2 mM CaCl2, 1 mM MgCl2, pH 7.4) and incubated in the same buffer for 10 minutes at room temperature to lower intracellular pH. […] Initial rates were plotted as the average 2 or more replicates, and pIC50 values were estimated using GraphPad Prism.

Row | Compound | Human NHE3 pIC50 [1] | Rat NHE3 pIC50 (prompt) [2] | Rat NHE3 pIC50 (persistent) [3] | IC50 [1] | IC50 [2] | IC50 [3]
1 | CN1Cc2c(Cl)cc(Cl)cc2[C@H](c2cccc(S(=O)(=O)NCCOCCOCCNC(=O)NCCN(CCNC(=O)NCCOCCOCCNS(=O)(=O)c3cccc([C@@H]4CN(C)Cc5c(Cl)cc(Cl)cc54)c3)C(=O)NCCCCCCCCCCCCNC(=O)N(CCNC(=O)NCCOCCOCCNS(=O)(=O)c3cccc([C@@H]4CN(C)Cc5c(Cl)cc(Cl)cc54)c3)CCNC(=O)NCCOCCOCCNS(=O)(=O)c3cccc([C@@H]4CN(C)Cc5c(Cl)cc(Cl)cc54)c3)c2)C1 [Example 45] |  |  |  | 0.1 to 10 µM | 0.1 to 10 µM | > 10 µM
2 | CN1Cc2c(Cl)cc(Cl)cc2[C@H](c2cccc(S(=O)(=O)NCCOCCOCCOCCNC(=O)CN(CC(=O)NCCOCCOCCOCCNS(=O)(=O)c3cccc([C@@H]4CN(C)Cc5c(Cl)cc(Cl)cc54)c3)[C@@H]3CCCC[C@H]3N(CC(=O)NCCOCCOCCOCCNS(=O)(=O)c3cccc([C@@H]4CN(C)Cc5c(Cl)cc(Cl)cc54)c3)CC(=O)NCCOCCOCCOCCNS(=O)(=O)c3cccc([C@@H]4CN(C)Cc5c(Cl)cc(Cl)cc54)c3)c2)C1 [Example 48] | C (C NHE3 pIC50 > 7) | B (B NHE3 pIC50 5-7) | C (C NHE3 pIC50 > 7) |  |  | 
3 | CN1Cc2c(Cl)cc(Cl)cc2[C@H](c2cccc(S(=O)(=O)NCCOCCOCCNC(=O)NCCN(CCNC(=O)NCCOCCOCCNS(=O)(=O)c3cccc([C@@H]4CN(C)Cc5c(Cl)cc(Cl)cc54)c3)C(=O)CCCCCCCCCCC(=O)N(CCNC(=O)NCCOCCOCCNS(=O)(=O)c3cccc([C@@H]4CN(C)Cc5c(Cl)cc(Cl)cc54)c3)CCNC(=O)NCCOCCOCCNS(=O)(=O)c3cccc([C@@H]4CN(C)Cc5c(Cl)cc(Cl)cc54)c3)c2)C1 [Example 44, N^1,N^1,N^12,N^12-tetrakis(13-(3-((S)-6,8-dichloro-2-methyl-1,2,3,4-tetrahydroisoquinolin-4-yl)phenylsulfonamido)-4-oxo-8,11-dioxa-3,5-diazatridecyl)dodecanediamide] |  |  |  | > 10 µM | > 10 µM | 0.1 to 10 µM
4 | CN1Cc2c(Cl)cc(Cl)cc2[C@H](c2cccc(S(=O)(=O)NCCOCCOCCOCCn3cc(CN(Cc4cn(CCOCCOCCOCCNS(=O)(=O)c5cccc([C@@H]6CN(C)Cc7c(Cl)cc(Cl)cc76)c5)nn4)Cc4cn(CCOCCOCCOCCNS(=O)(=O)c5cccc([C@@H]6CN(C)Cc7c(Cl)cc(Cl)cc76)c5)nn4)nn3)c2)C1 [Example 18, (S,S)—N,N′,N″-(2,2′,2″-(2,2′,2″-(2,2′,2″-(2,2′,2″-(4,4′,4″-nitrilotris(methylene)tris(1H-1,2,3-triazole-4,1-diyl))tris(ethane-2,1-diyl))tris(oxy)tris(ethane-2,1-diyl))tris(oxy)tris(ethane-2,1-diyl))tris(oxy)tris(ethane-2,1-diyl))tris(3-((S)-6,8-dichloro-2-methyl-1,2,3,4-tetrahydroisoquinolin-4-yl)benzenesulfonamide)] |  |  |  | 0.1 to 10 µM | 0.1 to 10 µM | > 10 µM

More lines, now with the values ahead:

Row | Human NHE3 pIC50 [1] | Rat NHE3 pIC50 (prompt) [2] | Rat NHE3 pIC50 (persistent) [3] | IC50 [1] | IC50 [2] | IC50 [3] | Compound
5 | C (C NHE3 pIC50 > 7) | C (C NHE3 pIC50 > 7) | C (C NHE3 pIC50 > 7) |  |  |  | CN1Cc2c(Cl)cc(Cl)cc2[C@H](c2cccc(S(=O)(=O)NCCOCCOCCN(C)C(=O)CCC(CCC(=O)N(C)CCOCCOCCNS(=O)(=O)c3cccc([C@@H]4CN(C)Cc5c(Cl)cc(Cl)cc54)c3)(CCC(=O)N(C)CCOCCOCCNS(=O)(=O)c3cccc([C@@H]4CN(C)Cc5c(Cl)cc(Cl)cc54)c3)NC(=O)NCC(=O)O)c2)C1 [Example 69]
6 | C (C NHE3 pIC50 > 7) | C (C NHE3 pIC50 > 7) | C (C NHE3 pIC50 > 7) |  |  |  | CN1Cc2c(Cl)cc(Cl)cc2[C@H](c2cccc(S(=O)(=O)NCCOCCOCCOCCNC(=O)NCCCN(CCCNC(=O)NCCOCCOCCOCCNS(=O)(=O)c3cccc([C@@H]4CN(C)Cc5c(Cl)cc(Cl)cc54)c3)CCCNC(=O)NCCOCCOCCOCCNS(=O)(=O)c3cccc([C@@H]4CN(C)Cc5c(Cl)cc(Cl)cc54)c3)c2)C1 [Example 51]
7 | A (A NHE3 pIC50 < 5) | A (A NHE3 pIC50 < 5) | B (B NHE3 pIC50 5-7) |  |  |  | CN1Cc2c(Cl)cc(Cl)cc2[C@H](c2cccc(S(=O)(=O)NCCOCCOCCNC(=O)CCC(CCC(=O)NCCOCCOCCNS(=O)(=O)c3cccc([C@@H]4CN(C)Cc5c(Cl)cc(Cl)cc54)c3)(CCC(=O)NCCOCCOCCNS(=O)(=O)c3cccc([C@@H]4CN(C)Cc5c(Cl)cc(Cl)cc54)c3)NCc3ccc(-c4ccc(Cl)cc4)cc3)c2)C1 [Example 24]
8 |  |  |  | > 10 µM | > 10 µM | < 0.1 µM | CN1Cc2c(Cl)cc(Cl)cc2[C@H](c2cccc(S(=O)(=O)NCCOCCOCCOCCNC(=O)CCC(CCC(=O)NCCOCCOCCOCCNS(=O)(=O)c3cccc([C@@H]4CN(C)Cc5c(Cl)cc(Cl)cc54)c3)(CCC(=O)NCCOCCOCCOCCNS(=O)(=O)c3cccc([C@@H]4CN(C)Cc5c(Cl)cc(Cl)cc54)c3)NCc3ccc(-c4ccc(Cl)cc4)cc3)c2)C1 [Example 19, 4-((4′-chlorobiphenyl-4-yl)methylamino)-4-(1-(3-((S)-6,8-dichloro-2-methyl-1,2,3,4-tetrahydroisoquinolin-4-yl)phenylsulfonamido)-13-oxo-3,6,9-trioxa-12-azapentadecan-15-yl)-N^1,N^7-bis(2-(2-(2-(2-(3-((S)-6,8-dichloro-2-methyl-1,2,3,4-tetrahydroisoquinolin-4-yl)phenylsulfonamido)ethoxy)ethoxy)ethoxy)ethyl)heptanediamide]
9 | B (B NHE3 pIC50 5-7) | A (A NHE3 pIC50 < 5) | B (B NHE3 pIC50 5-7) |  |  |  | CCCCCCCCCCC(=O)NC(CCC(=O)NCCOCCOCCNS(=O)(=O)c1cccc([C@@H]2CN(C)Cc3c(Cl)cc(Cl)cc32)c1)(CCC(=O)NCCOCCOCCNS(=O)(=O)c1cccc([C@@H]2CN(C)Cc3c(Cl)cc(Cl)cc32)c1)CCC(=O)NCCOCCOCCNS(=O)(=O)c1cccc([C@@H]2CN(C)Cc3c(Cl)cc(Cl)cc32)c1 [Example 22]
